Data set [1] addresses T1, fibrinogen receptor, glycoprotein IIb/IIIa (Homo sapiens, UniProt P05106+P08514).
T1 construct: The glycoprotein IIb/IIIa is obtained from Triton X-100 extracts of human blood platelets; from tissue; host or cells: human blood platelets (Triton X-100 extract)
As to the kind of experiment: inhibition of the binding of fibrinogen to the immobilized fibrinogen receptor, glycoprotein IIb/IIIa (ELISA). As to conditions: concentration required to inhibit the binding of fibrinogen to the immobilized receptor by 50%. Here is the method: The glycoprotein IIb/IIIa is obtained from Triton X-100 extracts of human blood platelets and purified by lectin affinity chromatography (Analytical Biochemistry 151, 1985, 169-177) and chromatography on an Arg-Gly-Asp-Ser affinity column (Science 231, 1986, 1559-62). The thus-obtained receptor protein is bonded to microtiter plates. The specific binding of fibrinogen to the immobilized receptor is determined with the aid of an ELISA system ("enzyme-linked immunosorbent assay"). The IC50 values hereinafter correspond to that concentration of the test substance which is required to inhibit the binding of fibrinogen to the immobilized receptor by 50%: […]

Data set [2] can be described thus: in vivo. As to conditions: iv, i.v. in the mouse. An excerpt: These compounds have low toxicity.

What is called IC50 is the concentration needed to halve the response being measured. Low values mean inhibition by little substance, high ones a need for much substance. What is called LD50 is the dose at which mortality reaches 50%.

T1 sequence (P08514 32-887 limits assumed): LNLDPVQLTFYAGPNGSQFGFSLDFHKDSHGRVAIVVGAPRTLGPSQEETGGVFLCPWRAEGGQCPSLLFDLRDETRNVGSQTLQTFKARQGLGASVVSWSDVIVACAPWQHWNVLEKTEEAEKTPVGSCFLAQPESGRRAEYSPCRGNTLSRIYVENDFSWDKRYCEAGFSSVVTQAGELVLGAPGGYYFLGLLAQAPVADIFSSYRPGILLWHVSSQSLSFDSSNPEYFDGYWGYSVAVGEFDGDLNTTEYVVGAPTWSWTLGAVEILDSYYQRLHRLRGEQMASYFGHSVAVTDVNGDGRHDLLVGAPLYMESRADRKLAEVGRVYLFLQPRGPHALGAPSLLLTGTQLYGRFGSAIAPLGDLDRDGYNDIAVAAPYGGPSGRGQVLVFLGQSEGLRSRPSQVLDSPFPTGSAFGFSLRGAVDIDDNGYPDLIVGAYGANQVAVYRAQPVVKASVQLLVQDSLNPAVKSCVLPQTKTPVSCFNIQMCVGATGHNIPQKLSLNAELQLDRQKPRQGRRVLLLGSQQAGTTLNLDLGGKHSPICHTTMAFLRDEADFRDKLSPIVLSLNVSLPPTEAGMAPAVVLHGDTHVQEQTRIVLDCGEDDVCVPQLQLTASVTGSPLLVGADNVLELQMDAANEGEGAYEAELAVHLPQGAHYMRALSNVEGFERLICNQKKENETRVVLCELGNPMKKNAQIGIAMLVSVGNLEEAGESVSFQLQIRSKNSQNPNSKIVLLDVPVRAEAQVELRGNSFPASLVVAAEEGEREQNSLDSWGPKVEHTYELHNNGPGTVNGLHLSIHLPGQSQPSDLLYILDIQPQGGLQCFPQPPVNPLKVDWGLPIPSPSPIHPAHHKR
T1 sequence (P08514 891-1039 partner limits assumed): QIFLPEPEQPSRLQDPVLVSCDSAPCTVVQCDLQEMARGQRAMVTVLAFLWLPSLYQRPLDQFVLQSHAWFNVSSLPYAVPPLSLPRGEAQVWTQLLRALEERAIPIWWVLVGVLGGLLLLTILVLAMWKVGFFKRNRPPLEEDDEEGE
T1 sequence (P05106 27-788): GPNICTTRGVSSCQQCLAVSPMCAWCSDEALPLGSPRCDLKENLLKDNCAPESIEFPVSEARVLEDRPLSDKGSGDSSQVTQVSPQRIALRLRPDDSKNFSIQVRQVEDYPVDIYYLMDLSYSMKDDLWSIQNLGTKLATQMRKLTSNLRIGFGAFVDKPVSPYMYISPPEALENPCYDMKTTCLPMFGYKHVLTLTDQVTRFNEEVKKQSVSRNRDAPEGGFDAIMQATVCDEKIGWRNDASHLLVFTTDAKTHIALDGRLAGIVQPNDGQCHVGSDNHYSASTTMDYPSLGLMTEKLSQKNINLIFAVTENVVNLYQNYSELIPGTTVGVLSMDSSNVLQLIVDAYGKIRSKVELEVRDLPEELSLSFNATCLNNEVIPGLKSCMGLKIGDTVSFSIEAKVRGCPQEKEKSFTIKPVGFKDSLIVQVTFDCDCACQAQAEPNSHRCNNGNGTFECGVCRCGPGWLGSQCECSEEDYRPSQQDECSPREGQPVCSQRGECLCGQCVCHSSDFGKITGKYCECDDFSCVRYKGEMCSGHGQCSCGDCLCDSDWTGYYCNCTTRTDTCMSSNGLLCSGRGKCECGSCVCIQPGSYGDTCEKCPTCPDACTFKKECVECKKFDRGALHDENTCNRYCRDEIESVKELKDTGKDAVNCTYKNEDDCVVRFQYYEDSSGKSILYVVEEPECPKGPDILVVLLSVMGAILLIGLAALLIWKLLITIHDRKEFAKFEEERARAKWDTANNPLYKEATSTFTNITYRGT

Regarding `N=C(N)c1ccc(C(=O)NCC(=O)N2CCC(OCC(=O)O)CC2)cc1` [Example 1, [[1-[N-(p-amidinobenzoyl)glycyl]-4-piperidinyl]oxy]acetic acid], in data set [1], the IC50 came out at 10 µM.
In data set [1], `C[C@H](NC(=O)c1ccc(C(=N)N)cc1)C(=O)N1CCC(OCC(=O)O)CC1` [Example 3, [[1-[N-(p-amidinobenzoyl)-L-alanyl]-4-piperidinyl]oxy]acetic acid] returned a 50% inhibitory concentration (IC50) of 1.7 µM. The compound also gave a 50% lethal dose (LD50) in data set [2] of 250 mg/kg.
In data set [1], `C[C@@H](NC(=O)c1ccc(C(=N)N)cc1)C(=O)N1CCC(OCC(=O)O)CC1` [Example 4, [[1-[N-(p-amidinobenzoyl)-D-alanyl]-4-piperidinyl]oxy]acetic acid] returned an IC50 of 140 µM.
In the case of `C[C@H](NC(=O)c1ccc(C(=N)N)cn1)C(=O)N1CCC(OCC(=O)O)CC1` [Example 5, [[1-[N-[(5-amidino-2-pyridyl)carbonyl]-L-alanyl]-4-piperidinyl]oxy]acetic acid], in data set [1], the IC50 was 1 µM. The same compound displayed an LD50 in data set [2] of 500 mg/kg.
As to `CC(C)[C@H](NC(=O)c1ccc(C(=N)N)cc1)C(=O)N1CCC(OCC(=O)O)CC1` [Example 6, [[1-[N-(p-amidinobenzoyl)-L-valyl]-4-piperidinyl]oxy]-acetic acid], the IC50 in data set [1] was 27 µM.
Compound `CC(C)C[C@H](NC(=O)c1ccc(C(=N)N)cc1)C(=O)N1CCC(OCC(=O)O)CC1` [Example 7, [[1-[N-(p-amidinobenzoyl)-L-leucyl]-4-piperidinyl]oxy]acetic acid] yielded an IC50 in data set [1] of 33 µM.
Regarding `N=C(N)c1ccc(C(=O)N[C@@H](Cc2ccc(O)cc2)C(=O)N2CCC(OCC(=O)O)CC2)cc1` [Example 14, [[1-[N-(p-amidinobenzoyl)-L-tyrosil]-4-piperidinyl]oxy]acetic acid], the LD50 in data set [2] stood at 250 mg/kg.

The record behind these values is patent US5658928A, “Amino acid derivatives” (Hoffmann-La Roche Inc., priority 1991, dated 1997).
